Here are results for 20 compounds from ChEMBL document CHEMBL3867426, “Synthesis and biological evaluation of 6-fluoro-3-phenyl-7-piperazinyl quinolone derivatives as potential topoisomerase I inhibitors” (Eur J Med Chem, 2016).

Series [1] in a line: Solubility of the compound in Tris/glycine/SDS buffer at pH 7.9. It is filed as physicochemical.
The target of series [2] is T1, DNA topoisomerase 1 (Homo sapiens) (UniProt P11387).
T1 sequence (whole entry): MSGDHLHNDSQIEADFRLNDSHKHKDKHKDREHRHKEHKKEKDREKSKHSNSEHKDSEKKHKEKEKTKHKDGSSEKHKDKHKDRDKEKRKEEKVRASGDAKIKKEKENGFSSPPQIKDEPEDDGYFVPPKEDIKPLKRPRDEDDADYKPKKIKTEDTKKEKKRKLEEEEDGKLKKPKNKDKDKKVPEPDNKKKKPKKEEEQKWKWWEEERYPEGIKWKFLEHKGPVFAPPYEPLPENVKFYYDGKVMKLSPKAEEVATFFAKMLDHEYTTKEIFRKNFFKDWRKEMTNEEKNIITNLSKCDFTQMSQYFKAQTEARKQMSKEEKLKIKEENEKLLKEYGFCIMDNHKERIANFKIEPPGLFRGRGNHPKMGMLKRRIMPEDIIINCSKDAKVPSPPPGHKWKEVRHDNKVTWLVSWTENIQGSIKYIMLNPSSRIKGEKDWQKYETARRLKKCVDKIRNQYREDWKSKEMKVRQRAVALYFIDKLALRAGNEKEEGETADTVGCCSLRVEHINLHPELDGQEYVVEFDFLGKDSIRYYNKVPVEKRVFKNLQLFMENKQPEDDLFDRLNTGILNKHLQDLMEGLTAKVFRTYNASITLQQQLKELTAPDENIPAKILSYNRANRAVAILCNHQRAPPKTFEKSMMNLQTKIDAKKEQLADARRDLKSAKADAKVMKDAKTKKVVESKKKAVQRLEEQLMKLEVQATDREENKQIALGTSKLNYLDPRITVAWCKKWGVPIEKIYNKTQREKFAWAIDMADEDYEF
Description: Inhibition of DNA topoisomerase 1 (unknown origin)-mediated relaxation of supercoiled pBR322 plasmid DNA at 100 uM after 30 mins by agarose gel electrophoresis.

Series [3] in a line: Antiproliferative activity against human BGC823 cells after 48 hrs by MTT assay. The note with it: BGC-823, 48 h. Type of series: functional, cell-based. (In general: Formazan colour is commonly taken as a measure of viable cells.)
Series [4] can be described thus: cells. The note with it: Homo sapiens, HepG2, 48 h.
The nature of series [5]: cells. The note with it: Homo sapiens, A549, 48 h.
A short description of series [6]: cells. The note with it: Homo sapiens, HeLa, 48 h.
A short description of series [7]: Antitumor activity against human A549 cells xenografted in BALB/c nude mouse assessed as reduction in tumor volume at 20 mg/kg, iv administered once every 3 days measured on day 9 post dose. It is filed as functional. (A xenograft is tissue or cells of one species grown in another, often human tumour cells in immunodeficient mice.)
The nature of series [8]: Antitumor activity against human A549 cells xenografted in BALB/c nude mouse assessed as reduction in tumor volume at 20 mg/kg, iv administered once every 3 days measured on day 18 post dose. It is filed as functional.
A short description of series [9]: Antitumor activity against human A549 cells xenografted in BALB/c nude mouse assessed as reduction in tumor volume at 20 mg/kg, iv administered once every 3 days measured on day 21 post dose. It is filed as functional.
Series [10] is described as follows: Antitumor activity against human A549 cells xenografted in BALB/c nude mouse assessed as reduction in tumor volume at 20 mg/kg, iv administered once every 3 days measured on day 3 post dose. Type of series: functional.
Series [11] deals with Mus musculus. Description: Toxicity in BALB/c nude mouse xenografted with human A549 cells assessed as mortality at 20 mg/kg, iv administered once every 3 days for 23 days. It is filed as organism-based. The note with it: in vivo.
In series [12] the test system is Mus musculus. Description: Toxicity in BALB/c nude mouse xenografted with human A549 cells assessed as change in body weight at 20 mg/kg, iv administered once every 3 days for 23 days measured twice per week during compound dosing. It is filed as organism-based. The note with it: in vivo.
Series [13] is described as follows: Antitumor activity against human A549 cells xenografted in BALB/c nude mouse assessed as reduction in tumor volume at 20 mg/kg, iv administered once every 3 days measured on day 6 post dose. Type of series: functional.
The nature of series [14]: Antitumor activity against human A549 cells xenografted in BALB/c nude mouse assessed as reduction in tumor volume at 20 mg/kg, iv administered once every 3 days measured on day 23 post dose. Type of series: functional.
Series [15] can be described thus: Antitumor activity against human A549 cells xenografted in BALB/c nude mouse assessed as reduction in tumor volume at 20 mg/kg, iv administered once every 3 days measured on day 15 post dose. Type of series: functional.
A short description of series [16]: Antitumor activity against human A549 cells xenografted in BALB/c nude mouse assessed as reduction in tumor volume at 20 mg/kg, iv administered once every 3 days measured on day 12 post dose. Type of series: functional.
A short description of series [17]: Solubility of the compound in pH 7.9 Tris/glycine/SDS buffer at 50 uM. It is filed as physicochemical. The note with it: pH 7.9, 50 µM.
The nature of series [18]: Cell cycle arrest in human A549 cells assessed as accumulation at G2 phase at 0.5 uM after 24 hrs by propidium iodide staining based flow cytometric analysis (reference value: 22.51%). It is filed as functional. On the technique in general: In flow cytometry, cells or beads pass a laser one at a time.
The nature of series [19]: Antitumor activity against human A549 cells xenografted in BALB/c nude mouse assessed as tumor growth inhibition at 20 mg/kg, iv administered once every 3 days for 23 days relative to control. It is filed as functional. The note with it: read-out: TGI.
Series [20] is described as follows: Cell cycle arrest in human A549 cells assessed as accumulation at G1 phase at 0.5 uM after 24 hrs by propidium iodide staining based flow cytometric analysis (reference value: 46.14%). It is filed as functional.
The nature of series [21]: Cell cycle arrest in human A549 cells assessed as accumulation at S phase at 0.5 uM after 24 hrs by propidium iodide staining based flow cytometric analysis (reference value: 26.40%). Type of series: functional.

Molecules are shown by their SMILES. Activity calls are given as the source filed them. The rule behind the calls is not given here. Some results are limits rather than exact numbers.

For orientation: solubility means the concentration that dissolves in the medium under given conditions. A low value points to a poorly soluble substance. Usually IC50 stands for the concentration that gives 50% inhibition. A lower IC50 goes with greater potency in that assay. As to `O=c1c(-c2cccc(F)c2)cn(C2CC2)c2cc(N3CCNCC3)c(F)cc12`, the solubility in series [1] is greater than 400 µM. For the same compound, in [2], the inhibition entry is “Active”. In addition, the IC50 in series [3] was determined as 12 µM; in [4], 7.38 µM; in series [5], 1.1 µM; in series [6], 9.16 µM.
Consider `CCn1cc(-c2cccc(Cl)c2)c(=O)c2cc(F)c(N3CCNCC3)cc21`, for which the IC50 turned out to be 18.4 µM in series [3], 15.3 µM in [4], 0.78 µM in [5] and 16.1 µM in series [6].
What is called T/C is the ratio of treated to control. `CC[C@@]1(O)C(=O)OCc2c1cc1n(c2=O)Cc2cc3cc(O)ccc3nc2-1` [HYDROXYCAMPTOTHECIN]: the T/C was 54.55% in [7]; 23.92% in series [8]; 20% in series [9]; 91.99% in series [10]; 68.37% in series [13]; 21.68% in series [14]. Also, the T/C in series [15] is 27.97%; in series [16], 29.44%. The Activity result in [11] and in series [12] was “Toxic” each time.
For `CCn1cc(-c2ccc(F)cc2)c(=O)c2cc(F)c(N3CCNCC3)cc21`, the IC50 worked out at 69.6 µM in [3], 56.2 µM in series [4], 11.4 µM in [5] and 60.9 µM in series [6].
In the case of `COc1cccc(-c2cn(C3CC3)c3cc(N4CCN(C)CC4)c(F)cc3c2=O)c1`, the IC50 was 20.9 µM in series [3], 25.4 µM in [4], 1.12 µM in [5] and 14.8 µM in series [6].
As to `CCn1cc(-c2ccccc2)c(=O)c2cc(F)c(N3CCNCC3)cc21`, the IC50 in series [3] turned out to be 75.4 µM; in [4], 30.1 µM; in series [5], 10.8 µM; in series [6], 35.1 µM.
Turning to `CCn1cc(-c2ccc(OC)cc2)c(=O)c2cc(F)c(N3CCNCC3)cc21`, the IC50 in [3] is 46.1 µM; in [4], 57.9 µM; in series [5], 11.6 µM; in series [6], 69 µM.
In [1], `O=c1c(-c2ccccc2)cn(C2CC2)c2cc(N3CCNCC3)c(F)cc12` registered a solubility greater than 400 µM. The inhibition result in series [2] was “Active”. Also, the IC50 in series [3] stood at 7.86 µM; in series [4], 8.65 µM; in series [5], 0.5 µM; in series [6], 9.99 µM.
In the case of `CCn1cc(-c2ccc(Cl)cc2)c(=O)c2cc(F)c(N3CCNCC3)cc21`, the IC50 in series [3] was determined as 14.6 µM; in [4] it was 24 µM; in series [5] it was 1.25 µM; in series [6], 15.4 µM.
On the same counts, the results for `CCn1cc(-c2ccc(C#N)cc2)c(=O)c2cc(F)c(N3CCNCC3)cc21` are 18.7 µM, 12.6 µM, 1.09 µM and 14.6 µM.
Taken in the same sequence, the figures for `CN1CCN(c2cc3c(cc2F)c(=O)c(-c2cccc(Cl)c2)cn3C2CC2)CC1` were 20.2 µM, 26.5 µM, 1.34 µM and 15.8 µM.
Taken in the same sequence, the figures for `CCn1cc(-c2cccc(OC)c2)c(=O)c2cc(F)c(N3CCNCC3)cc21` were 14.7 µM, 13 µM, 0.8 µM and 12.2 µM.
For the compound `CCn1cc(-c2nc3ccc([N+](=O)[O-])cc3o2)c(=O)c2cc(F)c(N3CCNC(C)C3)c(F)c21` (configuration not stated), the IC50 is 2.74 µM in series [3], 2.65 µM in series [4], 1.47 µM in series [5] and 2.98 µM in series [6]. Also, the solubility result in series [17] is on record as “Insoluble”.
`COc1ccc(-c2cn(C3CC3)c3cc(N4CCNCC4)c(F)cc3c2=O)cc1` showed a solubility in series [1] greater than 400 µM. In addition, in series [2], the inhibition entry is “Active”. Besides, the IC50 in series [3] came out at 18.9 µM; in [4], 20.8 µM; in series [5], 1.87 µM; in series [6], 16.5 µM.
Turning to `O=c1c(-c2ccc(F)cc2)cn(C2CC2)c2cc(N3CCNCC3)c(F)cc12`, the solubility in series [1] was greater than 400 µM. In series [2], the inhibition result was “Active”. Also, the IC50 in series [3] came to 15.1 µM; in [4], 10.6 µM; in series [5], 1.68 µM; in series [6], 14.9 µM.
In the case of `O=c1c(-c2ccc(Cl)cc2)cn(C2CC2)c2cc(N3CCNCC3)c(F)cc12`, the solubility in [1] was greater than 400 µM. For the same compound, the inhibition entry in series [2] is “Active”. Also, the IC50 in [3] was 12.9 µM; in series [4] it was 8.02 µM; in series [5], 0.65 µM; in [6] it was 9.3 µM.
On to `COc1cccc(-c2cn(C3CC3)c3cc(N4CCNCC4)c(F)cc3c2=O)c1`, for which the T/C in series [7] turned out to be 118.67%; in [8], 68.69%; in series [9] it was 71.52%; in series [10], 140.57%; in series [13] it was 114.41%; in series [14], 64.72%. The T/C in series [15] worked out at 73.12%; in series [16], 85.88%. Besides, the solubility in series [1] was greater than 400 µM. Further, in series [2], the inhibition entry was “Active”. Also, the Activity in series [18] is 11.8%; in [11], “Non-Toxic”; in series [12] it was “Non-Toxic”; in series [20], 48.2%; in series [21], 32.2%. In addition, the inhibition in vivo at 20 mg/kg in series [19] amounted to 42.8%. Further, the IC50 in series [3] is 0.69 µM; in series [4] it was 0.91 µM; in series [5], 0.12 µM; in series [6], 0.92 µM.
`CC[C@@]1(O)C(=O)OCc2c1cc1n(c2=O)Cc2cc3ccccc3nc2-1` [CAMPTOTHECIN]: the values for the Activity in series [18], in [20] and in [21] were 11.3%, 33.2% and 48.1%, respectively. In addition, the IC50 was 1.27 µM in series [3], 1.52 µM in series [4], 0.46 µM in series [5] and 1.41 µM in series [6].
Regarding `CCn1cc(-c2cccc(F)c2)c(=O)c2cc(F)c(N3CCNCC3)cc21`, the IC50 in [3] came out at 27.3 µM; in series [4] it was 27.8 µM; in series [5], 3.06 µM; in series [6] it was 21.9 µM.
`O=c1c(-c2cccc(Cl)c2)cn(C2CC2)c2cc(N3CCNCC3)c(F)cc12`: the T/C stood at 85.54% in [7]; 62.96% in [8]; 73.07% in series [9]; 87.18% in [10]; 95.42% in series [13]; 74.32% in series [14]. Also, the T/C in series [15] came to 76.4%; in series [16], 58.03%. The solubility in series [1] was greater than 400 µM. Besides, the inhibition entry in series [2] was “Active”. Moreover, the Activity is 17.7% in series [18]; “Non-Toxic” in series [11]; “Non-Toxic” in series [12]; 44% in [20]; 31.2% in series [21]. For the same compound, the inhibition in vivo at 20 mg/kg in [19] came to 29.2%. In addition, the IC50 in [3] was determined as 0.61 µM; in series [4], 0.86 µM; in series [5] it was 0.11 µM; in series [6], 0.89 µM.
